In ChEMBL document CHEMBL1201862, “PubChem BioAssay data set” (2004):
Calls of active or inactive are those of the source.

Key:
Cytochrome P450 1A2 = molecular target: T1, Cytochrome P450 1A2 (Homo sapiens, UniProt P05177);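 note: PubChem cytochrome P450 panel assay, CYP1A2 panel member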
T1 sequence (P05177 whole entry): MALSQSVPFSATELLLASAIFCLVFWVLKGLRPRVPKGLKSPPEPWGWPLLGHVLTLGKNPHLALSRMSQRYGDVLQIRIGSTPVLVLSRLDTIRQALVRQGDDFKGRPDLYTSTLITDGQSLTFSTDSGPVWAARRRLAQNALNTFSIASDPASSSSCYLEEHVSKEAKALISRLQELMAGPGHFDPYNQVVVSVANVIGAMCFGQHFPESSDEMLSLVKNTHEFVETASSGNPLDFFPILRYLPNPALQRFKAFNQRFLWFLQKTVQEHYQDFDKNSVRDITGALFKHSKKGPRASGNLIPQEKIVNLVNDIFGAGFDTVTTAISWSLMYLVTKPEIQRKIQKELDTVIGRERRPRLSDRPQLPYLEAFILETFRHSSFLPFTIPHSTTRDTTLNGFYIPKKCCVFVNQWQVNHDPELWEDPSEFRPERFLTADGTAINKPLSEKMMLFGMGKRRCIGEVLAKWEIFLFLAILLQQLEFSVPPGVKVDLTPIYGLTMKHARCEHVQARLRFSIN

Cytochrome P450 2C9 = Cytochrome P450 2C9 (Homo sapiens, UniProt P11712)
Chain of Cytochrome P450 2C9 (P11712 whole entry): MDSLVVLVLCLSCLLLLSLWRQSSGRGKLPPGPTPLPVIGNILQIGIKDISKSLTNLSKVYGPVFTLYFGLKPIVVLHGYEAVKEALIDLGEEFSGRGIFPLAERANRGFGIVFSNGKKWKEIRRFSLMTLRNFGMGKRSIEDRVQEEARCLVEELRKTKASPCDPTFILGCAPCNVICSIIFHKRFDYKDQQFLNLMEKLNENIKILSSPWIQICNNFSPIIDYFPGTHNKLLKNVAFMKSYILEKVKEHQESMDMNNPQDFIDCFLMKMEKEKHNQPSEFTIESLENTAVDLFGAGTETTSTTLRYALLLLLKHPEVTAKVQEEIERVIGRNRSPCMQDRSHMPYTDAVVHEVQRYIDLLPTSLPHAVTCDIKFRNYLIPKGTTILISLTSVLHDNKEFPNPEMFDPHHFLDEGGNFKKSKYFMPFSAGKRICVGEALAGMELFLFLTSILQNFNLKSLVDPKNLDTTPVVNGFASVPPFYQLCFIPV

Cytochrome P450 2C19 = Cytochrome P450 2C19 (Homo sapiens, UniProt P33261); experiment: Cytochrome panel assay with activity outcomes. Panel member name: p450-cyp2c19 Compounds with AC50 equal or less than 10 uM are considered active; format: functional; settings: read-out: AC50
Chain of Cytochrome P450 2C19 (P33261 whole entry): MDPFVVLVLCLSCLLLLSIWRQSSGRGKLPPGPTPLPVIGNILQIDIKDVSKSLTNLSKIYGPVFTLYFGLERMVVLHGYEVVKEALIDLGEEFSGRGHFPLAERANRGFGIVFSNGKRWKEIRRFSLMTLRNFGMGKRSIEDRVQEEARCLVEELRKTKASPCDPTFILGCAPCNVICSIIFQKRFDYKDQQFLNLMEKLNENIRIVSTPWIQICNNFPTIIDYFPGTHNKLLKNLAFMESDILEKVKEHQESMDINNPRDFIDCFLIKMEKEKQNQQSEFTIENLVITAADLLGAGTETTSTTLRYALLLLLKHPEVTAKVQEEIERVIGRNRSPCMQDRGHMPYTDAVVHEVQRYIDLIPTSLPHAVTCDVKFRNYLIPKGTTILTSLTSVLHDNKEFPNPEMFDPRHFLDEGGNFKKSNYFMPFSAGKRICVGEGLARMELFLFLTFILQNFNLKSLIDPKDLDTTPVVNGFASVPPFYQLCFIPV

Cytochrome P450 2D6 = Cytochrome P450 2D6 (Homo sapiens, UniProt P10635);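 note: CYP2D6 member of a cytochrome P450 panel assay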
Chain of Cytochrome P450 2D6 (P10635 whole entry): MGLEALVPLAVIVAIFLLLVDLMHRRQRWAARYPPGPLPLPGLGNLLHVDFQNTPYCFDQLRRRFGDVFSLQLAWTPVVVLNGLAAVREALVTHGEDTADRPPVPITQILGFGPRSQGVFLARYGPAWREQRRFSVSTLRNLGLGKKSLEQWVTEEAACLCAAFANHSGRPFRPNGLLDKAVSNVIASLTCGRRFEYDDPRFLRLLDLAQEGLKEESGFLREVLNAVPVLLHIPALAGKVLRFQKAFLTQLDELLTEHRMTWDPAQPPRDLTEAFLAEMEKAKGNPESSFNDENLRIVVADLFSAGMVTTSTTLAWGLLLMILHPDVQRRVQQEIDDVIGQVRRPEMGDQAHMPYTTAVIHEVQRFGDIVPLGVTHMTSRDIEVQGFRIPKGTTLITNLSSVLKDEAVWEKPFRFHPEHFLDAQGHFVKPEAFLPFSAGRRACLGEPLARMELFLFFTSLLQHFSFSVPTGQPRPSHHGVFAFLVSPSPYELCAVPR

cells [1] = format: functional
cells [2] = format: functional, cell-based
cells [3] = format: functional, cell-based; remark: listed apart in the source
[4] = molecular target: T2, Carboxy-terminal domain RNA polymerase II polypeptide A small phosphatase 1 (Homo sapiens, UniProt Q9GZU7); experiment: CTDSP1 inhibitors, concentration-response, biochemical, absorbance readout, ultra-high-throughput screen actives (AID 540297); format: functional
T2 sequence (Q9GZU7 whole entry): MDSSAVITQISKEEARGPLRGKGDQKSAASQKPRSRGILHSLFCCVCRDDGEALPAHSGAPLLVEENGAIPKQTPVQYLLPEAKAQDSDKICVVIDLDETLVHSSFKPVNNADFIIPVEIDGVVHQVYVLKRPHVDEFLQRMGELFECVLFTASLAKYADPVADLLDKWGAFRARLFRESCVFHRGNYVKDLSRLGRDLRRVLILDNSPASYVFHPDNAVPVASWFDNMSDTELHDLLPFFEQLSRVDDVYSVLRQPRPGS

Cytochrome P450 3A4 [5] = molecular target: T3, Cytochrome P450 3A4 (Homo sapiens, UniProt P08684); settings: Potency
T3 sequence (P08684 whole entry): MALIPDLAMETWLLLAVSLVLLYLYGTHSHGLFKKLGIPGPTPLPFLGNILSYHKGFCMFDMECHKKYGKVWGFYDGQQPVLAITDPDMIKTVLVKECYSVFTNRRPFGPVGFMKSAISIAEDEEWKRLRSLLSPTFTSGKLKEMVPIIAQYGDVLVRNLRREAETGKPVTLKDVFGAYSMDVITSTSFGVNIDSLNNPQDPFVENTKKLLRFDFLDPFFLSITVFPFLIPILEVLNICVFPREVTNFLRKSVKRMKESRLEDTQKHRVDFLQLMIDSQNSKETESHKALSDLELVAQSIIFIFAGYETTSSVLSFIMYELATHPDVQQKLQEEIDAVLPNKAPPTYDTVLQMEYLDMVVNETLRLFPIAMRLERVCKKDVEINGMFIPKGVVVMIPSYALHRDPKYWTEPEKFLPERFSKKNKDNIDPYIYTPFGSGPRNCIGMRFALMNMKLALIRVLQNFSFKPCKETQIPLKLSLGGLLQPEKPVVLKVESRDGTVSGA

[6] = viability loss in THP-1 monocytes – THP-1 cells, cytotoxicity control for Vif-APOBEC3G degradation inhibitor project, dose response (AID 1117359); format: functional; settings: THP-1
Cytochrome P450 3A4 [7] = molecular target: T3, Cytochrome P450 3A4
Leucine aminopeptidase = molecular target: T4, Leucine aminopeptidase (Plasmodium falciparum 3D7, UniProt Q8IL11); experiment: P. falciparum M17LAP inhibitors, primary screen, biochemical, fluorogenic H-Leu-NHMec substrate, 1536-well (AID 1619); format: functional
T4 sequence (Q8IL11 whole entry): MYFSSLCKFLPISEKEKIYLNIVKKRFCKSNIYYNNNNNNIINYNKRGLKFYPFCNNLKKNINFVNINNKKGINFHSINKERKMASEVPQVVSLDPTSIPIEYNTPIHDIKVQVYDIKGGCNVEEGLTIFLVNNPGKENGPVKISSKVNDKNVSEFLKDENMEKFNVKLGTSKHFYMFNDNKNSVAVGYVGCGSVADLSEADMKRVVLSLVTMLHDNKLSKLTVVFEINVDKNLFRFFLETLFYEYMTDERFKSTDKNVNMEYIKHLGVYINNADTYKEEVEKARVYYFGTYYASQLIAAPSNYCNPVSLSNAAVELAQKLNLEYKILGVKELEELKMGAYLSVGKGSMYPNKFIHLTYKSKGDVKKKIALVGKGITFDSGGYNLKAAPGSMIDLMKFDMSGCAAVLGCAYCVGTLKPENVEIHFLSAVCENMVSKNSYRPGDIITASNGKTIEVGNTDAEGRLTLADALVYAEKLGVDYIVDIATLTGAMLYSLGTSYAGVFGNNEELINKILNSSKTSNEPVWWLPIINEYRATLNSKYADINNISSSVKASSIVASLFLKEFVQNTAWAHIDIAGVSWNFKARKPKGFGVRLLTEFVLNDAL

[8] = blockers of HIV-1 ZM109 envelope-driven cell-cell fusion – HeLa effector, CEM target cells, luciferase, cherry-pick, dose response (AID 652058); format: functional, cell-based;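 note: luciferase signal from HIV-1 Env mediated cell-cell fusion of effector and target cells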
[9] = HIV-1 AD8 envelope cell-cell fusion blockers – cherry-pick, dose response (AID 652062); format: functional, cell-based;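 note: luciferase signal from cell-cell fusion driven by HIV-1 clade B AD8 Env; potency is for inhibitors of fusion seen as a drop in luminescence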
[10] = off-target signal loss in HeLa-CEM21 co-culture – HeLa F-luc CTL cells, cherry-picked, counter-screen for HIV-1 Env fusion inhibitor project, dose response (AID 652040); format: functional, cell-based;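 note: potency for signal decrease marking cytotoxic or nonspecific inhibition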
[11] = blockers of HIV-1 envelope-mediated cell-cell fusion – cherry-pick, dose response (AID 652057); format: functional, cell-based
[12] = Luminescence Cell-Based Dose Response HTS to Identify Activators of Luciferase Translation or Activity in H4 […] Cells. [Related pubchem assays: 1829 (Project Summary), 1814 (Primary HTS)]; format: functional
[13] = molecular target: Luciferin 4-monooxygenase (Photinus pyralis, UniProt P08659); experiment: inhibition of purified Photinus pyralis luciferase – biochemical, luminescence, dose response (AID 1891)
Chain of Luciferin 4-monooxygenase (P08659 whole entry): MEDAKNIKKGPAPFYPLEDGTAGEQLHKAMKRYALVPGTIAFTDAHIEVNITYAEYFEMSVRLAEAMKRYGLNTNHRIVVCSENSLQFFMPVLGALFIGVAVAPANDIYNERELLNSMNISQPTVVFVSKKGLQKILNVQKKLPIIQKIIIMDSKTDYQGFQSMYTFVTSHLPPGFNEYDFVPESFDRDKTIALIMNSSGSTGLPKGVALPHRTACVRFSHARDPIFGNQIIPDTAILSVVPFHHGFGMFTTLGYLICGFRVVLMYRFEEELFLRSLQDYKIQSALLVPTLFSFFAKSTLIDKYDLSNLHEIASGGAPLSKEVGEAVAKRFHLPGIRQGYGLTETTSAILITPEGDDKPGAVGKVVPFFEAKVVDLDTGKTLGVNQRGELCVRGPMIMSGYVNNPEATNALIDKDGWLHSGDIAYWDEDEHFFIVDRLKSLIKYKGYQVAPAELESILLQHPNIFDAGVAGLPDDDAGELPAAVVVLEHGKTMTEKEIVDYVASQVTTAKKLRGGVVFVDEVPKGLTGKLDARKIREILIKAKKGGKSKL

[14] = Luminescence Cell-Based Dose Confirmation HTS to Identify Inhibitors of Platelet Dense Granule Release. [Related pubchem assays: 1663 (Primary HTS), 1678 (Summary of Project)]; format: functional
H4 = experiment: Luminescence Cell-Based Dose Response HTS to Identify Activators of 5'UTR Stem-Loop Driven Prion Protein mRNA Translation in H4 Neuroglioblastoma Cells. [Related pubchem assays: 1829 (Project Summary), 1814 (Primary HTS)]; format: functional; settings: Homo sapiens
[15] = Luminescence Cell-Based Dose Confirmation HTS to Identify Activators of 5'UTR Stem-Loop Driven Alpha-Synuclein mRNA Translation in H4 Neuroglioblastoma Cells. [Related pubchem assays: 1829 (Project Summary), 1814 (Primary HTS)]; format: functional
[16] = NIH3T3 cell viability loss – ATP luminescence, mouse fibroblasts, counter-screen, dose response (AID 2010); format: functional, cell-based;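 note: cells exposed to compound for about 90 hours before reading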
INS1 = experiment: INS-1E survival protection against cytokine death – cell-based, luminescence, retest, dose response (AID 449756); format: functional; settings: Rattus norvegicus;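 note: cell death triggered by IL-1 beta plus TNF-alpha plus IFN-gamma mixture; protective hits raise ATP signal compared with cytokine alone wells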
[17] = Trypanosoma cruzi growth suppression in host cells – NIH3T3 host cells, beta-gal luminescence, confirmation (AID 2044); format: functional, cell-based;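 note: intracellular parasites grown in NIH/3T3 mouse fibroblasts as host cells; luminescent beta-galactosidase reporter signal from transgenic T. cruzi replicating inside host cells; inhibitors lower the luminescence signal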

O=C(Nc1ccc(Cl)cc1C(F)(F)F)c1ccc(Cl)cc1
AC50 (Cytochrome P450 1A2): 4.47 µM (inconclusive)
AC50 (Cytochrome P450 2C9): inconclusive
AC50 (Cytochrome P450 2C19): 2.24 µM (inconclusive)

O=S(=O)(NC1CCN(Cc2ccccc2)CC1)c1cccc2cccnc12
AC50 (Cytochrome P450 2D6): 1.58 µM (inconclusive)
AC50 (Cytochrome P450 2C9): inconclusive

COc1ccc(C(=O)OCn2nnc3ccccc3c2=O)cc1
IC50 (cells [1]): 16.8 µM (active)

O=C1OCc2cc(NC(=O)C34CC5CC(CC(C5)C3)C4)ccc21
EC50 (cells [2]): > 350 µM (not active)
EC50 (cells [3]): > 350 µM (not active)

NC(=NOC(=O)N1c2ccccc2Sc2ccccc21)c1ccc(Br)cc1
IC50 [4]: 6.46 µM (active)

Cc1ccn2c(=O)nc(SCC(=O)NCc3ccccc3)nc2c1
IC50 [4]: 9.61 µM (active)

CC(C)c1cccc(-c2ccc3c(c2)S(=O)(=O)c2cccc(C(=O)NCc4ccco4)c2C3=O)c1
IC50 [4]: 8.02 µM (active)

O=C(/C=C/c1ccccc1)OC1CC(O)C2(O)C=CO[C@@H](OC3OC(CO)C(O)C(O)C3O)C12 (some centres undefined)
AC50 (Cytochrome P450 3A4 [5]): 3.98 µM (inconclusive)

Cc1cccc(NC(=O)c2onc3c2CCCC3)c1C
AC50 (Cytochrome P450 2C9): inconclusive
AC50 (Cytochrome P450 2C19): 20 µM (inconclusive)

CCOc1ccc(NC(=O)C2CCN(S(=O)(=O)c3ccc4c(c3)N(C(C)=O)CCO4)CC2)cc1
EC50 (cells [2]): > 350 µM (not active)
EC50 (cells [3]): > 350 µM (not active)

COc1ccc(C2(O)CCN(Cc3nnnn3Cc3ccc(F)cc3)CC2)cc1
CC50 [6]: > 40 µM (active)

COc1cccc(C(=O)OCn2nnc3ccccc3c2=O)c1OC
IC50 (cells [1]): 16.2 µM (active)

CCOc1ccccc1OCCOc1ccc(F)cc1
AC50 (Cytochrome P450 2D6): 22.4 µM (inconclusive)
AC50 (Cytochrome P450 2C9): inconclusive

Cc1cc(C(=O)OCC(=O)NCCC(C)C)c2ccccc2n1
AC50 (Cytochrome P450 3A4 [7]): 15.8 µM (inconclusive)
AC50 (Cytochrome P450 2C9): inconclusive

CC(C)NC(=O)c1cc(C(=O)c2cc(Cl)ccc2O)coc1=N
IC50 (Leucine aminopeptidase): 2.15 µM (active)

COc1ccc(NC(=O)C2CCN(C(=O)c3cccs3)CC2)c(OC)c1
AC50 (Cytochrome P450 2C9): inconclusive

O=C(O)c1ccc(COc2ccc3ccccc3c2/C=C2/NC(=O)N(c3ccccc3)C2=O)cc1
IC50 (Leucine aminopeptidase): 24.6 µM (active)

COc1ccc2cc3cc(C(=O)N4CCN(c5ccccn5)CC4)oc3nc2c1
EC50 (cells [2]): > 350 µM (not active)
EC50 (cells [3]): > 350 µM (not active)

CC(C)c1c(O)ccc2c1CCC1C(C)(C)CCC[C@@]21C (some centres undefined)
AC50 (Cytochrome P450 3A4 [5]): 25.1 µM (inconclusive)

CCCCC#CC1C=CC(Oc2cc(OC)c(OC)c(OC)c2)C(CO)O1 (centres undefined)
AC50 (Cytochrome P450 3A4 [5]): 5.01 µM (inconclusive)

N#Cc1cccc(NC(=O)CN2NS(=O)(=O)c3ccccc3C2=O)c1
IC50 (Leucine aminopeptidase): 14.9 µM (active)

CCCOc1ccc(N2CC(C(=O)Nc3ccccn3)CC2=O)cc1 (centres undefined)
IC50 (cells [1]): 19.8 µM (active)

Cc1cc(O)c(C(C)(C)C)cc1Sc1cc(C(C)(C)C)c(O)cc1C
AC50 (Cytochrome P450 3A4 [5]): 3.98 µM (inconclusive)

CCNC(=O)NC(=O)C(C)Sc1ccc2c(c1)OCCO2 (centres undefined)
IC50 (Leucine aminopeptidase): 7.93 µM (active)

Fc1ccc(CSc2ccc(-c3ccco3)nn2)cc1
EC50 (cells [2]): > 350 µM (not active)
EC50 (cells [3]): 7.7 µM (active)

CC[C@@]12C(=O)N(c3cccc(F)c3)C(=O)N1[C@H](c1ccc(Br)cc1)[C@@H]1C(=O)N(C(C)(C)C)C(=O)[C@@H]12
AC50 [8]: < 260 nM (active)
AC50 [9]: < 260 nM (active)
AC50 [10]: < 260 nM (active)
AC50 [11]: < 260 nM (active)

COc1ccc(S(=O)(=O)NCCC(=O)NC(C)c2ccccc2)cc1 (centres undefined)
AC50 (Cytochrome P450 2D6): 14.1 µM (inconclusive)
AC50 (Cytochrome P450 3A4 [7]): 22.4 µM (inconclusive)
AC50 (Cytochrome P450 2C9): inconclusive
AC50 (Cytochrome P450 2C19): 17.8 µM (inconclusive)

O=C(CCCCCCCC(=O)NNC(=O)Nc1ccccc1)NNC(=O)Nc1ccccc1
IC50 [4]: 11.9 µM (active)

OC1=C2C(=Nc3ccccc3NC2c2cccs2)CCC1 (centres undefined)
AC50 [8]: 1300 nM (active)
AC50 [9]: 3830 nM (active)
AC50 [10]: 2440 nM (active)
AC50 [11]: 2270 nM (active)

Cc1cc(O)nc(N=N/C(=N/Nc2ccc(O)cc2)c2ccccc2)n1
EC50 (cells [2]): 102 µM (active)
EC50 [12]: 13.1 µM (active)
EC50 (cells [3]): 8.27 µM (active)
EC50 [13]: 763 nM (active)
EC50 [14]: 4.42 µM (active)
EC50 (H4): 16.4 µM (active)
EC50 [15]: 11.6 µM (active)

Cn1ccs/c1=N\C(=O)c1ccccc1F
IC50 (cells [1]): > 50 µM (active)

O=C(N/N=C/c1cc([N+](=O)[O-])ccc1O)c1cccc2ccccc12
EC50 (cells [2]): 20.3 µM (active)
EC50 [16]: > 60 µM (not active)
AC50 (INS1): 4.2 µM (active)
EC50 (cells [3]): > 350 µM (not active)
EC50 [17]: 2.36 µM (active)

S=C=Nc1cccc2ccccc12 [1-NAPHTHYLISOTHIOCYANATE]
AC50 (Cytochrome P450 3A4 [5]): 25.1 µM (inconclusive)

COc1ccc(-c2coc3cc(OC)cc(OC)c3c2=O)cc1 [BIOCHANIN A, DIMETHYL ETHER]
AC50 (Cytochrome P450 3A4 [5]): 20 µM (inconclusive)

C=CCN1CC[C@]23c4c5ccc(O)c4O[C@H]2/C(=N/NC(=O)c2ccccc2)CC[C@@]3(O)[C@H]1C5 [NALOXONE BENZOYLHYDRAZONE]
AC50 (Cytochrome P450 3A4 [5]): 15.8 µM (inconclusive)
